Results taken from US9833454B2, “Difluoromethoxy compound with low bioactivation potential for the reduction of beta-amyloid production” (BRISTOL-MYERS SQUIBB COMPANY, priority 2014, dated 2017).
Several values for one entry are separate records, joined by “and”; a condition that tells them apart may be missing. Equal values may be shown once. Read-outs that look alike come from different tables or passages of the source.

Key:
[1] = system: Mouse brain Aβ42; test: Mouse brain Aβ42; format: in vivo; settings: for Mouse Aβ42: mouse brain; for B/P / Compound concentration in the Mouse Aβ42 study: mouse; for Compound concentration in the Mouse Aβ42 study: matrix not given
Method: Aβ42 IC50 was determined as described by Gillman, J. E. Starrett Jr., M. F. Parker, et al., “Discovery and evaluation of BMS-708163, a potent, and orally bioavailable gamma-secretase inhibitor”, ACS Medicinal Chemistry Letters, vol. 1., pp. 120-124, 2010. Mouse brain Aβ42 was determined as described by J. H. Toyn, X-A. Lin, M. W. Thompson et al., “Viable mouse gene ablations that robustly alter bran Abeta levels are are”, Biomed. Central Neuroscience, vol. 11, pp. 143, […].

[2] = biological target: T1, CYP2C9 (Homo sapiens, UniProt P11712); test: Inhibition of recombinant CYP enzymes (rCYP), CYP2C9; format: in vitro ADME; settings: average of two experiments, read-out: rCYP IC50 2C9
T1 sequence (P11712 whole entry): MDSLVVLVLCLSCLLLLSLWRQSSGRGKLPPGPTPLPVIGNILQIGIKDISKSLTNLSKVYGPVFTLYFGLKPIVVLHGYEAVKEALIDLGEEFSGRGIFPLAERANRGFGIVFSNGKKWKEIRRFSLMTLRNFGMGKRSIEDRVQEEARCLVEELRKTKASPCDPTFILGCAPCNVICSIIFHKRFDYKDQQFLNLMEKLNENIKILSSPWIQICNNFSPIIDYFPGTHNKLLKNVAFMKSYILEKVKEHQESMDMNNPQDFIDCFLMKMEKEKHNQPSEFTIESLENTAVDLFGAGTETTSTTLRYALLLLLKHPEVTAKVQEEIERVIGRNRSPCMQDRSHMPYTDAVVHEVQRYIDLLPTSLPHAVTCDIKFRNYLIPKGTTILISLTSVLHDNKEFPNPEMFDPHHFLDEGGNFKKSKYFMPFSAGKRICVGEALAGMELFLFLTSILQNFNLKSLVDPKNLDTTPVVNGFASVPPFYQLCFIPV

[3] = biological target: T2, CYP2C19 (Homo sapiens, UniProt P33261); test: Inhibition of recombinant CYP enzymes (rCYP), CYP2C19; format: in vitro ADME; settings: average of two experiments, read-out: rCYP IC50 2C19
T2 sequence (P33261 whole entry): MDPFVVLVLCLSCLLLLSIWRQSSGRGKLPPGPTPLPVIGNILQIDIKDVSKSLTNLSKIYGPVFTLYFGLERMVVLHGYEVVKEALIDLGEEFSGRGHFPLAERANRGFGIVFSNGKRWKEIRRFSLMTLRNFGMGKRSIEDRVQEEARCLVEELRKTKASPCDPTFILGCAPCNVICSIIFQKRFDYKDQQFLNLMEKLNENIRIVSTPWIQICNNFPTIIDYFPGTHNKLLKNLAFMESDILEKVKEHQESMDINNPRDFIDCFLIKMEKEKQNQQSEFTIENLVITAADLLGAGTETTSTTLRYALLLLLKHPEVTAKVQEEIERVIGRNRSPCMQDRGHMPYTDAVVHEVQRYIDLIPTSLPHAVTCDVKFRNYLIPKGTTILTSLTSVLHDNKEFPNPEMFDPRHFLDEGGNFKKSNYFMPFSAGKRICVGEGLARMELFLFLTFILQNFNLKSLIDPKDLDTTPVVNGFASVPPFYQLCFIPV

[4] = biological target: T3, CYP2D6 (Homo sapiens, UniProt P10635); test: Inhibition of recombinant CYP enzymes (rCYP), CYP2D6; format: in vitro ADME; settings: average of two experiments, read-out: rCYP IC50 2D6
T3 sequence (P10635 whole entry): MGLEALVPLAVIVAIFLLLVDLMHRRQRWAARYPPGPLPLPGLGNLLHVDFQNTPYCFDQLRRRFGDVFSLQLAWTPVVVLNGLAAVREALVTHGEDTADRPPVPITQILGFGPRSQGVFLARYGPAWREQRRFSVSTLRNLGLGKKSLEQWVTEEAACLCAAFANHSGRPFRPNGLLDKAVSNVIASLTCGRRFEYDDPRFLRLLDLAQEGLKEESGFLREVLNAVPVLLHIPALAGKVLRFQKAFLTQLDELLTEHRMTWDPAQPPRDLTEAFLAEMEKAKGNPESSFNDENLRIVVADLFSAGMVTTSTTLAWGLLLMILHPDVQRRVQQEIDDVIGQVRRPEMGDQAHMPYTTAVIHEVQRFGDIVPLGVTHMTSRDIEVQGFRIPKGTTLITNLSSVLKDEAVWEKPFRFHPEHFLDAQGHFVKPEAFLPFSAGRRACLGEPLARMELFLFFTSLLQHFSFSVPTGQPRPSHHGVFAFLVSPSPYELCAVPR

[5] = biological target: T1, CYP2C9; test: Inhibition of CYP enzymes in human liver microsomes (HLM), CYP2C9; format: in vitro ADME
[6] = biological target: adenosine 2A receptor (Homo sapiens, UniProt P29274); test: In vitro safety: off-target receptor binding and enzyme assays, A2A; settings: in vitro safety panel
adenosine 2A receptor, sequence (P29274 whole entry): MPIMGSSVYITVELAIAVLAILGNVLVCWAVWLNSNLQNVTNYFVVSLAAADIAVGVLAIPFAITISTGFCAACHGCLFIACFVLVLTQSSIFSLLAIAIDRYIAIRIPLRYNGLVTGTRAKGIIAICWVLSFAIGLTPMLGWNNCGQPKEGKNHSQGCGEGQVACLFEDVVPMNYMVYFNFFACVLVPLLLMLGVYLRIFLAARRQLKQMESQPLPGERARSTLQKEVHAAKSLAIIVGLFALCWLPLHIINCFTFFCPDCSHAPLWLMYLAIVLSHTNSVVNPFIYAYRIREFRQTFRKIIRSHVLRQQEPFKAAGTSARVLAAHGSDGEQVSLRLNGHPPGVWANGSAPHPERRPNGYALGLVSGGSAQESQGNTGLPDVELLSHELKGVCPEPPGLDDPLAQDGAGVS
Method: (§1) A range of off-target receptor binding assays and enzyme assays were carried out using conventional methods available in the art.

[7] = biological target: dopamine transporter (Homo sapiens, UniProt Q01959); test: In vitro safety: off-target receptor binding and enzyme assays, DAT; settings: in vitro safety panel
dopamine transporter, sequence (Q01959 whole entry): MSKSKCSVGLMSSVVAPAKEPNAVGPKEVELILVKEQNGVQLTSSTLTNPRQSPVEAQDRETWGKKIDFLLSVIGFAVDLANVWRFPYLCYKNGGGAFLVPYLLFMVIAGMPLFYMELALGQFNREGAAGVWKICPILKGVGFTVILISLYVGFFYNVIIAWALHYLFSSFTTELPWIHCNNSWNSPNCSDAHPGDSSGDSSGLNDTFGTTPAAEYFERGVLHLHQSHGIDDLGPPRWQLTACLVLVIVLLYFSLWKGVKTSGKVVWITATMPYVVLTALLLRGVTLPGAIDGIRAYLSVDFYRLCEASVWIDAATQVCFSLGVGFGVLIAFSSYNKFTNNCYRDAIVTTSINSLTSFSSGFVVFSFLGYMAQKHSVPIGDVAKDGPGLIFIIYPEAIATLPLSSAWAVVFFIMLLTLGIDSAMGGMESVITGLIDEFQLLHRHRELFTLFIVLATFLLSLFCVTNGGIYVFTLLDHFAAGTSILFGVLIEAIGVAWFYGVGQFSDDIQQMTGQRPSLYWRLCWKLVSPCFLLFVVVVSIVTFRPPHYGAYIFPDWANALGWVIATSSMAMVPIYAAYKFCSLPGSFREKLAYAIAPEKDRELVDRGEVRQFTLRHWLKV
Method: as §1

[8] = biological target: 43 receptor and Enzyme panel (all others); test: In vitro safety: 43 receptor and enzyme panel, all others; settings: targets other than A2A, DAT, D1, MAO A, read-out: 43 receptor and Enzyme IC50s, all others
Method: as §1

[9] = system: major human Cytochrome P450 (CYP) enzymes; test: HLM TDI panel, other CYP enzymes; format: in vitro ADME; settings: CYP enzymes other than 3A4 and 2D6
[10] = biological target: T3, CYP2D6; test: biochemical
[11] = biological target: T4, CYP1A2 (Homo sapiens, UniProt P05177); test: Inhibition of CYP enzymes in human liver microsomes (HLM), CYP1A2
T4 sequence (P05177 1-516): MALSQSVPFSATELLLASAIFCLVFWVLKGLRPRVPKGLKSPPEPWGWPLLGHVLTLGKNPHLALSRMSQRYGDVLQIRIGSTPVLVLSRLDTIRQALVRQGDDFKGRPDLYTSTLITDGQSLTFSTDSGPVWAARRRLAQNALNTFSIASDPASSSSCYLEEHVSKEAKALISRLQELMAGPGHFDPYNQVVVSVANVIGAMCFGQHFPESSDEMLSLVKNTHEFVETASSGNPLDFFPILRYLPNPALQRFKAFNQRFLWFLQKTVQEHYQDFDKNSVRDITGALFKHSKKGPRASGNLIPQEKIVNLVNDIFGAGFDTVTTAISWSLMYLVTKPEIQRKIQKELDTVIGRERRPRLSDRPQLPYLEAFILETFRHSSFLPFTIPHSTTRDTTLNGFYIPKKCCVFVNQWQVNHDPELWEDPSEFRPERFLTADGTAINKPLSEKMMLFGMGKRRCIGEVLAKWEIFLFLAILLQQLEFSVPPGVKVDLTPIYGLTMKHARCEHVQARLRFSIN

[12] = biological target: T3, CYP2D6; test: Inhibition of CYP enzymes in human liver microsomes (HLM), CYP2D6; settings: IC50 shift 0 vs 30 min preincubation (TDI ratio)
[13] = biological target: T2, CYP2C19; test: Inhibition of CYP enzymes in human liver microsomes (HLM), CYP2C19
[14] = HLM, IC50 shift 0 vs 30 min preincubation (TDI ratio)

B/P ([1]; 8 mpk): 0.7
Compound concentration in the Mouse Aβ42 study ([1]; 8 mpk): 0.391 µM
B/P ([1]; 30 mpk): 1.4
Compound concentration in the Mouse Aβ42 study ([1]; 30 mpk): 1.334 µM
IC50 [2]: 1.3 µM
IC50 [3]: 0.96 µM
IC50 [4]: > 20 µM
IC50 ([5]; HLM, 0 min preincubation, read-out: IC50-0 min 2C9): 12.7 µM
IC50 Ratio 2C9 [5, 14]: 1.4
IC50 ([5]; IC50-30 min 2C9, HLM, 30 min preincubation with NADPH): 8.8 µM
HLM TDI panel TDI ratio, others [9]: < 2
IC50 [10]: 34.5 µM and 15.6 µM
IC50 [11]: > 40 µM
IC50 Ratio 1A2 [11, 14]: 1.0
IC50 ([11]; read-out: IC50-30 min 1A2, HLM, 30 min preincubation with NADPH): > 40 µM
IC50 Ratio 2D6 [12]: 2.2
IC50 Ratio 2C19 [13, 14]: 1.9
IC50 ([13]; IC50-0 min 2C19, HLM, 0 min preincubation): 22.6 µM
IC50 ([13]; IC50-30 min 2C19, HLM, 30 min preincubation with NADPH): 12.2 µM
Compound: CNc1nc(Nc2ccc(-n3cnc(C)n3)c(OC(F)F)c2)nc2c1C(C)(C)CC2c1ccc(F)cc1 (single isomer, unassigned) [Enantiomer 1, N2-(3-(difluoromethoxy)-4-(3-methyl-1H-1,2,4-triazol-1-yl)phenyl)-7-(4-fluorophenyl)-N4,5,5-trimethyl-6,7-dihydro-5H-cyclopenta[d]pyrimidine-2,4-diamine]
Mouse Aβ42 ([1]; 8 mpk): 68%
Mouse Aβ42 ([1]; 30 mpk): 29%
IC50 [6]: 2 µM
IC50 [7]: 8 to 10 µM
IC50 [8]: > 10 µM
